Experimental data as given in paper PMC10799935, “Discovery of a peripheral 5HT2A antagonist as a clinical candidate for metabolic dysfunction-associated steatohepatitis” (Nature Communications, 2024).
In brackets after ≈: the same amount, converted by molar mass. Several values for one entry are separate records, joined by “and”; a condition that tells them apart may be missing. Equal values may be shown once. Entries after “also recorded” stand apart in the source; their conditions may differ.

Tests used:
[1] = molecular target: CYP2C19 (Homo sapiens, UniProt P33261); test: in vitro
Chain of CYP2C19 (P33261 whole entry): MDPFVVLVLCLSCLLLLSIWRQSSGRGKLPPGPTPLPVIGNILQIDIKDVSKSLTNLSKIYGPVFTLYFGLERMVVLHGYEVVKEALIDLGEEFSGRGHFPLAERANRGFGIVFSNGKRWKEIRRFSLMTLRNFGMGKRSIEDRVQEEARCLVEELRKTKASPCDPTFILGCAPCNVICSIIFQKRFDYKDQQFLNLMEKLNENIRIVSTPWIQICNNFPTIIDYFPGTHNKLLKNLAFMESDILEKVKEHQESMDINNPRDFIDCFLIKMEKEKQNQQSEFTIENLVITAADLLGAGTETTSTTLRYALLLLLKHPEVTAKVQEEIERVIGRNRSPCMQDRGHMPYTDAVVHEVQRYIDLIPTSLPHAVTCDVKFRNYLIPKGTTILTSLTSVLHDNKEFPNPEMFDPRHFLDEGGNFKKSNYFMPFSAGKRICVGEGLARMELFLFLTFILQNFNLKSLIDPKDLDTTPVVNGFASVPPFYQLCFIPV

[2] = physchem; details: pH 6.8, aqueous buffer
[3] = In vivo PK with diverse doses (5, 10, 20 mpk) for PK and PD co-relation
Protocol: In this paper, the authors based on their previous studies on 5-HT2A LKO mice and 5HT2A antagonists, try to synthesize a serial of new derivatives based on the compound 2 (Clarinex) to develop oral drug candidates of […]
Then the authors tested the pharmacokinetics of compound 11c both in rats and dogs by iv and gavage administration. Besides, the tissue distribution of compound 11c was also determined by […]
NASH and fibrosis. The following questions may need to be answered by the authors.
Comment 1: In general, after gavage administration for 8 weeks (page 178-179) or 12 weeks (page 274-275), the compound 11c mainly distributed in digestive track especially in intestines with comparatively lower plasma drug concentration as well as in the other organs.
Response: We appreciate the Reviewer’s comment. For most oral drugs, the high level of total radioactivity is often observed in gastrointestinal tract in QWBA (Quantitative Whole Body Autoradiography). In the study of QWBA for compound 11c, tissue distribution was evaluated in multiple time points. Total radioactivities in stomach and small intestine were high at early time points and decreased at late time points. […]

[4] = tested on: HFD-fed C57BL/6J mice; test: DIO mice: fasting glucose levels; format: in vivo, mouse; details: PO, in mg/dL (unit assumed)
[5] = in vitro; details: Chinese hamster
[6] = tested on: HFD-fed C57BL/6J mice; test: DIO mice (HFD, 8 weeks): body weight; format: in vivo, mouse; details: for Body weight: Predicted (LS) mean diff., Vehicle vs. 11c: Dunnett's test; for 16hr fasting B.W.: DIO C57BL/6J mice, PO; for Body weight: DIO mice, individual mice and group Mean, in g (unit assumed)
Description: For in vivo efficacy in DIO models and CDAHFD models, the experimental protocol for this study was approved by the Institutional Animal Care and Use Committee (IACUC) at the Korea Advanced Institute of Science and Technology (No. KA2023-027-v2) or Kyungpook National University (No. KNU-20200134). All relevant ethical guidelines were followed. C57BL/6 J male mice (11 weeks old) were purchased from the Charles River Japan and were housed in a specific pathogen-free barrier facility under a regular light-dark cycle (12-hour light/12-hour dark) at 24°C with 40–60% humidity. Food (standard chow diet, Envigo, 2018S) and water were provided ad libitum. […] Mice were euthanized by the method of cervical dislocation. The measurement of lean and fat mass in live mice was performed by a body composition analyzer (LF50 BCA-analyzer, Bruker). After 6 h of fasting, mice were sacrificed, and tissue samples were obtained.

[7] = AMES test (mutagenic potential)
[8] = 5mpk, individual animals, 5 mg/kg
[9] = 10mpk, individual animals, 10 mg/kg

## Cc1nc2n(c(=O)c1CCN1CCC(=C3c4ccc(Cl)cc4CCc4cccnc43)CC1)CCCC2O (stereo not shown) [Compound 11c]
[1]
  inhibition at 10 µM: 6.83%
[2]
  solubility: 1300 µg/mL (≈ 2510 µM)
[3]
  concentration present up to 8 hrs: more than 20 nM and > 10 ng/mL
[4]; 5mpk, group mean
  6hr Fasting Glucose Levels, Average 7W: 158.2
[4]; [8]
  6hr Fasting Glucose Levels, Average 7W: 172.5 and 172.0 and 150.5 and 154.0 and 119.5 and 188.0 and 151.0
[4]; 5mpk, 2021.03.29, duplicate readings of individual animals, 5 mg/kg
  6hr Fasting Glucose Levels, Blood Glucose Level: 173.0 and 172.0 and 155.0 and 189.0 and 149.0 and 152.0 and 158.0 and 150.0 and 127.0 and 112.0 and 181.0 and 195.0 and 140.0 and 162.0
[4]; 10mpk, group mean
  6hr Fasting Glucose Levels, Average 7W: 134.9
[4]; [9]
  6hr Fasting Glucose Levels, Average 7W: 116.0 and 126.0 and 147.5 and 160.5 and 170.0 and 89.5
[4]; 10mpk, 2021.03.29, duplicate readings of individual animals, 10 mg/kg
  6hr Fasting Glucose Levels, Blood Glucose Level: 117.0 and 115.0 and 121.0 and 131.0 and 148.0 and 147.0 and 163.0 and 158.0 and 171.0 and 169.0 and 89.0 and 90.0
[5]
  IC50: > 100 µM
[6]; 5mpk, week 12
  Body weight: Predicted (LS) mean diff., Vehicle vs. 11c: 0.7 g
[6]; 5mpk, week 13
  Body weight: Predicted (LS) mean diff., Vehicle vs. 11c: 0.6 g
[6]; 5mpk, week 14
  Body weight: Predicted (LS) mean diff., Vehicle vs. 11c: 0.7 g
[6]; 5mpk, week 15
  Body weight: Predicted (LS) mean diff., Vehicle vs. 11c: 0.6 g
[6]; 5mpk, week 16
  Body weight: Predicted (LS) mean diff., Vehicle vs. 11c: 1.1 g
[6]; 5mpk, week 17
  Body weight: Predicted (LS) mean diff., Vehicle vs. 11c: 1.7 g
[6]; 5mpk, week 18
  Body weight: Predicted (LS) mean diff., Vehicle vs. 11c: 2.1 g
[6]; 5mpk, week 19
  Body weight: Predicted (LS) mean diff., Vehicle vs. 11c: 2.7 g
[6]; 5mpk, week 20
  Body weight: Predicted (LS) mean diff., Vehicle vs. 11c: 2.7 g
[6]; 5mpk, week 21
  Body weight: Predicted (LS) mean diff., Vehicle vs. 11c: 3.4 g
[6]; 10 mpk daily oral gavage, 8 weeks, vs vehicle-treated mice
  body weight gain upon HFD: attenuated
[6]; 10mpk, week 12
  Body weight: Predicted (LS) mean diff., Vehicle vs. 11c: 0.1 g
[6]; 10mpk, week 13
  Body weight: Predicted (LS) mean diff., Vehicle vs. 11c: 0.9 g
[6]; 10mpk, week 14
  Body weight: Predicted (LS) mean diff., Vehicle vs. 11c: 1.5 g
[6]; 10mpk, week 15
  Body weight: Predicted (LS) mean diff., Vehicle vs. 11c: 1.8 g
[6]; 10mpk, week 16
  Body weight: Predicted (LS) mean diff., Vehicle vs. 11c: 3.7 g
[6]; 10mpk, week 17
  Body weight: Predicted (LS) mean diff., Vehicle vs. 11c: 6.3 g
[6]; 10mpk, week 18
  Body weight: Predicted (LS) mean diff., Vehicle vs. 11c: 7.2 g
[6]; 10mpk, week 19
  Body weight: Predicted (LS) mean diff., Vehicle vs. 11c: 7.7 g
[6]; 10mpk, week 20
  Body weight: Predicted (LS) mean diff., Vehicle vs. 11c: 7.2 g
[6]; 10mpk, week 21
  Body weight: Predicted (LS) mean diff., Vehicle vs. 11c: 7.2 g
[6]; 5mpk, group mean
  16hr fasting B.W.: 41.2
[6]; [8]
  16hr fasting B.W.: 43.7 and 38.6 and 37.5 and 35.1 and 41.4 and 48.5 and 43.4
[6]; 10mpk, group mean
  16hr fasting B.W.: 36.5
[6]; [9]
  16hr fasting B.W.: 33.5 and 41.1 and 34.8 and 42.8 and 35.7 and 31.2
[6]; 5mpk PO, week 12 (2021.04.26), 5 mg/kg
  Body weight: 25.4 and 23.4 and 24.4 and 26.8 and 26.0 and 30.2 and 25.6
[6]; 5mpk PO, week 13, 5 mg/kg
  Body weight: 29.8 and 27.5 and 28.5 and 28.2 and 28.9 and 32.0 and 29.6
[6]; 5mpk PO, week 13, 5 mg/kg, mean
  Body weight: 29.2
[6]; 5mpk PO, week 14, 5 mg/kg
  Body weight: 32.9 and 29.6 and 29.0 and 31.0 and 34.0 and 31.6
[6]; 5mpk PO, week 15, 5 mg/kg
  Body weight: 35.3 and 30.6 and 29.8 and 29.5 and 33.2 and 37.1 and 34.1
[6]; 5mpk PO, week 15, 5 mg/kg, mean
  Body weight: 32.8
[6]; 5mpk PO, week 16, 5 mg/kg
  Body weight: 37.5 and 32.7 and 32.5 and 31.1 and 35.5 and 40.4 and 36.8
[6]; 5mpk PO, week 16, 5 mg/kg, mean
  Body weight: 35.2
[6]; 5mpk PO, week 17, 5 mg/kg
  Body weight: 39.7 and 34.6 and 33.9 and 32.4 and 37.7 and 43.6 and 39.6
[6]; 5mpk PO, week 17, 5 mg/kg, mean
  Body weight: 37.4
[6]; 5mpk PO, week 18, 5 mg/kg
  Body weight: 41.7 and 36.9 and 35.3 and 33.1 and 40.0 and 45.0 and 41.5
[6]; 5mpk PO, week 18, 5 mg/kg, mean
  Body weight: 39.1
[6]; 5mpk PO, week 19, 5 mg/kg
  Body weight: 43.5 and 38.6 and 37.3 and 34.8 and 41.8 and 47.5 and 43.3
[6]; 5mpk PO, week 19, 5 mg/kg, mean
  Body weight: 41.0
[6]; 5mpk PO, week 20, 5 mg/kg
  Body weight: 45.7 and 40.4 and 39.5 and 37.0 and 43.5 and 51.0 and 45.4
[6]; 5mpk PO, week 20, 5 mg/kg, mean
  Body weight: 43.2
[6]; 5mpk PO, week 21, 5 mg/kg
  Body weight: 44.4 and 40.2 and 39.8 and 36.4 and 42.4 and 50.0 and 45.2
[6]; 5mpk PO, week 21, 5 mg/kg, mean
  Body weight: 42.6
[6]; 10mpk PO, week 12 (2021.04.26), 10 mg/kg
  Body weight: 26.6 and 29.1
[6]; 10mpk PO, week 13, 10 mg/kg
  Body weight: 29.9 and 31.2
[6]; 10mpk PO, week 14, 10 mg/kg
  Body weight: 31.8 and 32.6
[6]; 10mpk PO, week 15, 10 mg/kg
  Body weight: 34.0 and 33.3 and 29.5
[6]; 10mpk PO, week 16, 10 mg/kg
  Body weight: 36.3 and 34.1 and 30.0
[6]; 10mpk PO, week 17, 10 mg/kg
  Body weight: 36.6 and 35.0 and 29.8
[6]; 10mpk PO, week 18, 10 mg/kg
  Body weight: 35.5 and 37.1
[6]; 10mpk PO, week 19, 10 mg/kg
  Body weight: 34.6 and 39.9
[6]; 10mpk PO, week 20, 10 mg/kg
  Body weight: 35.7 and 43.1
[6]; 10mpk PO, week 21, 10 mg/kg
  Body weight: 36.0 and 43.2
[7]
  AMES: didn’t show mutagenic potential; also recorded: Negative
